# Assays:
# [1] = target: T1, rat P2X7 (Rattus norvegicus (Rat), UniProt Q64663); test: Radioligand binding, rat P2X7-1321N1 cell membranes, tritiated A-804598; details: rat P2X7-1321N1 membranes, tracer tritiated A-804598, 1 hour 4° C.
# Procedure: (§1) P2X7 Antagonism in Recombinant hP2X7 Cells: (a) Ca^2+ Flux (b) Radioligand Binding
# (§2) (B) Radioligand binding: human or rat P2X7-1321N1 cells were collected and frozen @−80° C. On the day of the experiment, cell membrane preparations were made according to standard published methods. […] The compound can be prepared as described in the literature. […] The assay was terminated by filtration (GF/B filters pre-soaked with 0.3% PEI) and washed with washing buffer (Tris-HCl 50 mM). The IC50 generated in the binding assay was corrected for tracer concentration and affinity of the tracer to derive at the affinity (Ki) of the test compounds.
# [2] = target: T1, rat P2X7; test: Ca2+ flux (FLIPR) in 1321N1 cells expressing recombinant rat P2X7 channel; assay type: cell-based; details: rat P2X7, 250 μM BzATP
# Procedure: as §1
# (§3) (A) Ca^2+flux: 1321N1 cells expressing the recombinant human, rat or mouse P2X7 channel was cultured in HyQ DME/(HyClone/Dulbecco's Modified Eagle Medium) high glucose supplemented with 10% Fetal Bovine Serum (FBS) and appropriate selection marker. Cells were seeded at a density of 25000 cells/well (96-well clear bottom black walled plates) in 100 μl volume/well. On the day of the experiment, cell plates were washed with assay buffer, containing (in mM): 130 NaCl, 2 KCl, 1 CaCl2, 1 MgCl2, 10 HEPES, 5 glucose; pH 7.40 and 300 mOs. After the wash, cells were loaded with the Calcium-4 dye (Molecular Device) and incubated in the dark for 60 minutes. Test compounds were prepared at 250× the test concentration in neat DMSO. Intermediate 96-well compound plates were prepared by transferring 1.2 μL of the compound into 300 μL of assay buffer. A further 3× dilution occurred when transferring 50 μL/well of the compound plate to 100 μL/well in the cell plate. Cells were incubated with test compounds and dye for 30 minutes. […] The fluorescence change was measured 180 seconds after adding the agonist.
# [3] = target: T2, human P2X7 (Homo sapiens (Human), UniProt Q99572); test: Radioligand binding, human P2X7-1321N1 cell membranes, tritiated A-804598; details: human P2X7-1321N1 membranes, tracer tritiated A-804598, 1 hour 4° C.
# T2 sequence (Q99572 whole entry): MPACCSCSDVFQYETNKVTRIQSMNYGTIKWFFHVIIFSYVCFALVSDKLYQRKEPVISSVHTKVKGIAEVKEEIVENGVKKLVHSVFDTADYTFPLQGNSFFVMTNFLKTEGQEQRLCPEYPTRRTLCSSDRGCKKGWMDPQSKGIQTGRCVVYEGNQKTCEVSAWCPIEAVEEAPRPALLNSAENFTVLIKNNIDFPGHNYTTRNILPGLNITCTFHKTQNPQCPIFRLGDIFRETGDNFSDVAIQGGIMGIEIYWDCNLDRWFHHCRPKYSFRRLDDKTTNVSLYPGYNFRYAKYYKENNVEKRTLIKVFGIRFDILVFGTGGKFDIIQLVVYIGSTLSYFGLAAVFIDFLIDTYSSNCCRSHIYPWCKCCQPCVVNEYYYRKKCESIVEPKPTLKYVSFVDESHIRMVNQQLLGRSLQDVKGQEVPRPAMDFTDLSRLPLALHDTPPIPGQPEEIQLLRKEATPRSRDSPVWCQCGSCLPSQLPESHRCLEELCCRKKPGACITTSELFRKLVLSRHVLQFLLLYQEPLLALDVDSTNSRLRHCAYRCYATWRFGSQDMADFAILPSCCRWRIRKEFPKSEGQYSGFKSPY
# Procedure: as §1, §2
# [4] = target: T2, human P2X7; test: Ca2+ flux (FLIPR) in 1321N1 cells expressing recombinant human P2X7 channel; assay type: cell-based; details: human P2X7, 250 μM BzATP
# Procedure: as §1, §3
# T1 sequence (Q64663 whole entry): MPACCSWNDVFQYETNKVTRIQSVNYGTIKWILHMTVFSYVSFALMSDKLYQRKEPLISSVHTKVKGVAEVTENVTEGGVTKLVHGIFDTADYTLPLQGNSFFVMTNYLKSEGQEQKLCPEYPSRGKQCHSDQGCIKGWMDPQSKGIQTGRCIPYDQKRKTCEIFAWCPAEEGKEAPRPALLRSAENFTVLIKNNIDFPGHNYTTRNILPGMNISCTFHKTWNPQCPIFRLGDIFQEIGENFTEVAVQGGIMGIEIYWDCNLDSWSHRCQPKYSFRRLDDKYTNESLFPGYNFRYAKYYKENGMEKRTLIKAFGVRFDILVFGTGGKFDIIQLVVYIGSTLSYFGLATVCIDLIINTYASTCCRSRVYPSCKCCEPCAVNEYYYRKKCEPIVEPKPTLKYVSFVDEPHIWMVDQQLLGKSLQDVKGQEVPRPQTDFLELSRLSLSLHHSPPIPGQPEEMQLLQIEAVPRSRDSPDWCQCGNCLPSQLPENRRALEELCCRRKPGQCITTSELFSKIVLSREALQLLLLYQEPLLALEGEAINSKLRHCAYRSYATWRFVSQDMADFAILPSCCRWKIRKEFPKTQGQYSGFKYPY
SMILES,Ki [1],IC50 [2],Ki [3],IC50 [4]
"O=C(c1ccc(F)c(C(F)(F)F)c1Cl)N1[C@H]2CC[C@@H]1c1nnc(-c3cscn3)n1C2 [Example 52, (6S,9R)-10-{[2-Chloro-4-fluoro-3-(trifluoromethyl)phenyl]carbonyl}-3-(1,3-thiazol-4-yl)-6,7,8,9-tetrahydro-5H-6,9-epimino[1,2,4]triazolo[4,3-a]azepine]",0.0063 µM,0.131 µM,0.0316 µM,0.0102 µM
"O=C(c1cccc(C(F)(F)F)c1Cl)N1[C@H]2CC[C@@H]1c1nnc(-c3ccc[nH]3)n1C2 [Example 62, (6S,9R)-10-{[2-Chloro-3-(trifluoromethyl)phenyl]carbonyl}-3-(1H-pyrrol-2-yl)-6,7,8,9-tetrahydro-5H-6,9-epimino[1,2,4]triazolo[4,3-a]azepine]",,> 10 µM,0.0063 µM,0.0196 µM
"O=C(c1ccc(F)c(Cl)c1Cl)N1[C@H]2CC[C@@H]1c1nnc(-c3cnccn3)n1C2 [Example 47, (6S,9R)-10-[(2,3-Dichloro-4-fluorophenyl)carbonyl]-3-pyrazin-2-yl-6,7,8,9-tetrahydro-5H-6,9-epimino[1,2,4]triazolo[4,3-a]azepine]",,,0.01 µM,0.0203 µM
"O=C(c1cccc(C(F)(F)F)c1Cl)N1[C@H]2CC[C@@H]1c1nnc(-c3ccsc3)n1C2 [Example 58, (6S,9R)-10-{[2-Chloro-3-(trifluoromethyl)phenyl]carbonyl}-3-thiophen-3-yl-6,7,8,9-tetrahydro-5H-6,9-epimino[1,2,4]triazolo[4,3-a]azepine]",,0.713 µM,0.01 µM,0.0017 µM
"O=C(c1cccc(C(F)(F)F)c1Cl)N1[C@H]2CC[C@@H]1c1nnc(-c3ccc(F)cn3)n1C2 [Example 45, (6S,9R)-10-{[2-Chloro-3-(trifluoromethyl)phenyl]carbonyl}-3-(5-fluoropyridin-2-yl)-6,7,8,9-tetrahydro-5H-6,9-epimino[1,2,4]triazolo[4,3-a]azepine]",,,0.0126 µM,0.0131 µM
"O=C(c1cccc(C(F)(F)F)c1Cl)N1[C@H]2CC[C@@H]1c1nnc(-c3cccs3)n1C2 [Example 61, (6S,9R)-10-{[2-Chloro-3-(trifluoromethyl)phenyl]carbonyl}-3-thiophen-2-yl-6,7,8,9-tetrahydro-5H-6,9-epimino[1,2,4]triazolo[4,3-a]azepine]",,10 µM,0.004 µM,0.0026 µM
"O=C(c1cccc(C(F)(F)F)c1Cl)N1[C@H]2CC[C@@H]1c1nnc(-c3ccccn3)n1C2 [Example 41, (6S,9R)-10-{[2-Chloro-3-(trifluoromethyl)phenyl]carbonyl}-3-pyridin-2-yl-6,7,8,9-tetrahydro-5H-6,9-epimino[1,2,4]triazolo[4,3-a]azepine]",0.0079 µM,1.58 µM,0.0126 µM,0.0063 µM
"O=C(c1ccc(Cl)c(F)c1Cl)N1[C@H]2CC[C@@H]1c1nnc(-c3cscn3)n1C2 [Example 54, (6S,9R)-10-[(2,4-Dichloro-3-fluorophenyl)carbonyl]-3-(1,3-thiazol-4-yl)-6,7,8,9-tetrahydro-5H-6,9-epimino[1,2,4]triazolo[4,3-a]azepine]",0.0079 µM,8.91 µM,0.0251 µM,0.0061 µM
"Cc1nc(-c2nnc3n2C[C@@H]2CC[C@H]3N2C(=O)c2cccc(C(F)(F)F)c2Cl)cs1 [Example 56, (6S,9R)-10-{[2-Chloro-3-(trifluoromethyl)phenyl]carbonyl}-3-(2-methyl-1,3-thiazol-4-yl)-6,7,8,9-tetrahydro-5H-6,9-epimino[1,2,4]triazolo[4,3-a]azepine]",,,,0.0308 µM
"O=C(c1cccc(C(F)(F)F)c1Cl)N1[C@H]2CC[C@@H]1c1nnc(-c3cccnc3)n1C2 [Example 48, (6S,9R)-10-{[2-Chloro-3-(trifluoromethyl)phenyl]carbonyl}-3-pyridin-3-yl-6,7,8,9-tetrahydro-5H-6,9-epimino[1,2,4]triazolo[4,3-a]azepine]",,,0.0398 µM,0.0132 µM
"Cc1cc(-c2nnc3n2C[C@@H]2CC[C@H]3N2C(=O)c2cccc(C(F)(F)F)c2Cl)[nH]n1 [Example 51, (6S,9R)-10-{[2-Chloro-3-(trifluoromethyl)phenyl]carbonyl}-3-(3-methyl-1H-pyrazol-5-yl)-6,7,8,9-tetrahydro-5H-6,9-epimino[1,2,4]triazolo[4,3-a]azepine]",0.0079 µM,4.1 µM,0.0398 µM,0.0144 µM
"O=C(c1cccc(C(F)(F)F)c1Cl)N1[C@H]2CC[C@@H]1c1nnc(-c3ncccn3)n1C2 [Example 46, (6S,9R)-10-{[2-Chloro-3-(trifluoromethyl)phenyl]carbonyl}-3-pyrimidin-2-yl-6,7,8,9-tetrahydro-5H-6,9-epimino[1,2,4]triazolo[4,3-a]azepine]",0.0063 µM,0.253 µM,0.0158 µM,0.0152 µM
"O=C(c1cccc(C(F)(F)F)c1Cl)N1[C@H]2CC[C@@H]1c1nnc(-c3cnccn3)n1C2 [Example 42, (6S,9R)-10-{[2-Chloro-3-(trifluoromethyl)phenyl]carbonyl}-3-pyrazin-2-yl-6,7,8,9-tetrahydro-5H-6,9-epimino[1,2,4]triazolo[4,3-a]azepine]",0.0079 µM,0.251 µM,0.0126 µM,0.02 µM
"O=C(c1cccc(C(F)(F)F)c1Cl)N1[C@H]2CC[C@@H]1c1nnc(-c3ccc(F)cc3)n1C2 [Example 40, (6S,9R)-10-{[2-Chloro-3-(trifluoromethyl)phenyl]carbonyl}-3-(4-fluorophenyl)-6,7,8,9-tetrahydro-5H-6,9-epimino[1,2,4]triazolo[4,3-a]azepine]",0.0355 µM,10 µM,0.0219 µM,0.0126 µM
"Cc1c(C(=O)N2[C@H]3CC[C@@H]2c2nnc(-c4cscn4)n2C3)cccc1C(F)(F)F [Example 53, (6S,9R)-10-{[2-Methyl-3-(trifluoromethyl)phenyl]carbonyl}-3-(1,3-thiazol-4-yl)-6,7,8,9-tetrahydro-5H-6,9-epimino[1,2,4]triazolo[4,3-a]azepine]",0.0079 µM,3.86 µM,0.0126 µM,0.0031 µM
"O=C(c1cccc(C(F)(F)F)c1Cl)N1[C@H]2CC[C@@H]1c1nnc(-c3cncs3)n1C2 [Example 57, (6S,9R)-10-{[2-Chloro-3-(trifluoromethyl)phenyl]carbonyl}-3-(1,3-thiazol-5-yl)-6,7,8,9-tetrahydro-5H-6,9-epimino[1,2,4]triazolo[4,3-a]azepine]",,> 10 µM,0.0355 µM,0.0977 µM
"Cc1ncsc1-c1nnc2n1C[C@@H]1CC[C@H]2N1C(=O)c1cccc(C(F)(F)F)c1Cl [Example 59, (6S,9R)-10-{[2-Chloro-3-(trifluoromethyl)phenyl]carbonyl}-3-(4-methyl-1,3-thiazol-5-yl)-6,7,8,9-tetrahydro-5H-6,9-epimino[1,2,4]triazolo[4,3-a]azepine]",,> 10 µM,0.126 µM,0.101 µM
"O=C(c1cccc(C(F)(F)F)c1Cl)N1[C@H]2CC[C@@H]1c1nnc(-c3cscn3)n1C2 [Example 49, (6S,9R)-10-{[2-Chloro-3-(trifluoromethyl)phenyl]carbonyl}-3-(1,3-thiazol-4-yl)-6,7,8,9-tetrahydro-5H-6,9-epimino[1,2,4]triazolo[4,3-a]azepine]",0.004 µM,0.0135 µM,0.02 µM,0.005 µM
"O=C(c1ccnc(C(F)(F)F)c1Cl)N1[C@H]2CC[C@@H]1c1nnc(-c3ccc(Cl)s3)n1C2 [Example 60, (6S,9R)-3-(5-Chlorothiophen-2-yl)-10-{[3-chloro-2-(trifluoromethyl)pyridin-4-yl]carbonyl}-6,7,8,9-tetrahydro-5H-6,9-epimino[1,2,4]triazolo[4,3-a]azepine]",,2.34 µM,0.0219 µM,0.0149 µM
"O=C(c1cccc(C(F)(F)F)c1Cl)N1[C@H]2CC[C@@H]1c1nnc(-c3ccc(Cl)s3)n1C2 [Example 55, (6S,9R)-3-(5-Chlorothiophen-2-yl)-10-{[2-chloro-3-(trifluoromethyl)phenyl]carbonyl}-6,7,8,9-tetrahydro-5H-6,9-epimino[1,2,4]triazolo[4,3-a]azepine]",,,0.0251 µM,0.0171 µM
